Measured values from ChEMBL document CHEMBL4138100, “Novel anti-inflammatory agents targeting CXCR4: Design, synthesis, biological evaluation and preliminary pharmacokinetic study” (Eur J Med Chem, 2017).
Active and inactive are the calls of the source. The rule behind the calls is not given here.

What was measured:
[1] = biological target: C-X-C chemokine receptor type 4 (Homo sapiens) (UniProt P61073); assay: Inhibition of biotinylated TN14003 binding to CXCR4 in human MDA-MB-231 cells assessed as reduction in fluorescence preincubated for 10 mins followed by biotinylated-TN14003 addition measured after 30 mins by streptavidin-rhodamine staining based immunofluorescence microscopic analysis; assay type: cell-based
Chain of C-X-C chemokine receptor type 4 (Homo sapiens) (P61073 whole entry): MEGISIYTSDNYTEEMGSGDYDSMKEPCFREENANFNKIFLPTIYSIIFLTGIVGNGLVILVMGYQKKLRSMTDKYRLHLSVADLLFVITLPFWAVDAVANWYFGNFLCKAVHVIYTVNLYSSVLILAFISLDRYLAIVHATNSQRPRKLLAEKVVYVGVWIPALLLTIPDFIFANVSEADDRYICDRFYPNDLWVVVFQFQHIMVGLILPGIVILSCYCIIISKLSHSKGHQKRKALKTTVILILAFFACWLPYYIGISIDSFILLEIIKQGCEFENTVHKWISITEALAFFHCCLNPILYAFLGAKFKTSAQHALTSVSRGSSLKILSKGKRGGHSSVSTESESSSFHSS

[2] = biological target: C-X-C chemokine receptor type 4 (Homo sapiens) (UniProt P61073); assay: Potency index, ratio of AMD3100 EC to compound EC for inhibition of biotinylated TN14003 binding to CXCR4 in human MDA-MB-231 cells; assay type: functional, cell-based
[3] = biological target: C-X-C chemokine receptor type 4 (Homo sapiens) (UniProt P61073); assay: Inhibition of CXCR4-mediated chemotaxis in human MDA-MB-231 cells assessed as inhibition of CXCL12alpha-induced cell invasion at 100 nM after 22 hrs by hematoxylin/eosin dye-based matrigel assay relative to control; assay type: functional
Mus musculus [4] = assay: Antiinflammatory activity in mouse assessed as inhibition of xylene-induced ear edema at 10 mg/kg, ip treated post 30 mins xylene treatment measured at 2 hrs post dose relative to control; assay type: functional
Mus musculus [5] = assay: Antiinflammatory activity in mouse assessed as inhibition of xylene-induced increase in number of inflammatory cells in ear at 10 mg/kg, ip treated post 30 mins xylene treatment measured at 2 hrs post last dose by histological analysis; assay type: functional, organism-based
Mus musculus [6] = assay: Antiinflammatory activity in mouse assessed as inhibition of xylene-induced ear edema volume at 10 mg/kg, ip treated post 30 mins xylene treatment measured at 2 hrs post dose by histological analysis; assay type: functional, organism-based
[7] = biological target: C-X-C chemokine receptor type 4 (Homo sapiens) (UniProt P61073); assay: Inhibition of CXCR4 in human MDA-MB-231 cells assessed as reduction in CXCR4/[…] signaling-mediated Akt Ser473 phosphorylation by Western blot analysis; assay type: functional, cell-based
MDA-MB-231 = assay: Cytotoxicity against human MDA-MB-231 cells assessed as inhibition of cell proliferation at 10 uM after 24 to 72 hrs by MTT assay; assay type: cell-based; settings: mda-mb-231, 10 µM
MCF-10A = assay: Antiproliferative activity in human MCF10A cells at 10 uM after 24 to 72 hrs by MTT assay; assay type: cell-based
Mus musculus [8] = assay: Antiinflammatory activity in mouse assessed as inhibition of xylene-induced ear thickness at 10 mg/kg, ip treated post 30 mins xylene treatment measured at 2 hrs post dose by histological analysis; assay type: functional, organism-based
[9] = Stability in nude mouse plasma assessed as parent compound remaining at 30 mg/kg, iv after 5 mins by HPLC analysis; assay type: ADME, organism-based; settings: read-out: Stability
[10] = Stability in nude mouse plasma assessed as parent compound remaining at 30 mg/kg, iv after 20 mins by HPLC analysis; assay type: ADME, organism-based; settings: read-out: Stability
[11] = Stability in nude mouse plasma assessed as parent compound remaining at 30 mg/kg, iv after 50 mins by HPLC analysis; assay type: ADME, organism-based; settings: read-out: Stability
[12] = Half life in nude mouse plasma at 30 mg/kg, iv by HPLC analysis; assay type: ADME, organism-based
[13] = Stability in nude mouse plasma assessed as parent compound remaining at 30 mg/kg, iv after 1 hr by HPLC analysis; assay type: ADME, organism-based; settings: in vivo
CXCR4 [14] = assay: Selectivity index, ratio of antiproliferative activity in human MDA-MB-231 cells to EC for inhibition of biotinylated TN14003 binding to CXCR4 in human MDA-MB-231 cells; assay type: toxicity, cell-based; settings: probe biotinylated TN14003, read-out: Selectivity Index
CXCR4 [15] = assay: Selectivity index, ratio of antiproliferative activity in human MCF10A cells to EC for inhibition of biotinylated TN14003 binding to CXCR4 in human MDA-MB-231 cells; assay type: toxicity, cell-based; settings: probe biotinylated TN14003, read-out: Selectivity Index

Row | Structure (SMILES) | EC [1] [nM] | inhibition [3] [%] | further results
1 | Cc1ccc(S(=O)(=O)NCc2ccc(CNC(=O)c3cccc(F)c3)cc2)cc1 | 1 | 55 | Ratio [2]: 1000
2 | Cc1ccc(S(=O)(=O)NCc2ccc(CNC(=O)c3ccc([N+](=O)[O-])cc3)cc2)cc1 | 10 | 55 | –
3 | O=C(NCc1ccc(CNS(=O)(=O)c2ccccc2)cc1)c1ccccc1 | 1 | > 60 | Ratio [2]: 1000; inhibition in vivo at 10 mg/kg (Mus musculus [4]): 62%
4 | Cc1ccc(S(=O)(=O)NCc2ccc(CNC(=O)c3ccccc3F)cc2)cc1 | 1000 | – | –
5 | O=C(NCc1ccc(CNS(=O)(=O)c2ccccc2)cc1)c1cccc(F)c1 | 100 | > 60 | –
6 | Cc1ccc(S(=O)(=O)NCc2ccc(CNC(=O)c3cccc(Cl)c3)cc2)cc1 | 100 | > 60 | inhibition in vivo at 10 mg/kg (Mus musculus [4]): 57%
7 | Cc1ccc(S(=O)(=O)NCc2ccc(CNC(=O)c3cccc(C)c3)cc2)cc1 | 1000 | – | –
8 | O=C(NCc1ccc(CNS(=O)(=O)c2ccccc2)cc1)c1ccccc1Cl | 10 | > 60 | inhibition (Mus musculus [4]): inactive
9 | Cc1ccc(C(=O)NCc2ccc(CNS(=O)(=O)c3ccc(C)cc3)cc2)cc1 | 1000 | – | –
10 | COc1cccc(C(=O)NCc2ccc(CNS(=O)(=O)c3ccc(C)cc3)cc2)c1 | 10 | > 90 | inhibition in vivo at 10 mg/kg (Mus musculus [4]): 28%
11 | Cc1ccc(S(=O)(=O)NCc2ccc(CNC(=O)c3ccccc3)cc2)cc1 | > 1000 | – | –
12 | O=C(NCc1ccc(CNS(=O)(=O)c2ccccc2)cc1)c1ccc(F)cc1 | 100 | > 60 | inhibition in vivo at 10 mg/kg (Mus musculus [4]): 40%
13 | Cc1ccc(S(=O)(=O)NCc2ccc(CNC(=O)c3ccc(F)cc3)cc2)cc1 | 1 | > 60 | inhibition (Mus musculus [5]): Active; inhibition (Mus musculus [6]): Active; inhibition [7]: Dose-dependent effect; Activity (MDA-MB-231): Non-Toxic; Activity (MCF-10A): Non-Toxic; inhibition in vivo at 10 mg/kg (Mus musculus [4]): 75%; inhibition (Mus musculus [8]): Active; remaining at 5 min [9]: 100%; remaining at 20 min [10]: 65%; remaining at 50 min [11]: 45%; half-life [12]: 40 min; Stability [13]: Stable; selectivity ratio (CXCR4 [14]): 1000; selectivity ratio (CXCR4 [15]): 1000
14 | Cc1ccc(C(=O)NCc2ccc(CNS(=O)(=O)c3ccccc3)cc2)cc1 | 100 | < 50 | –
15 | Cc1ccc(S(=O)(=O)NCc2ccc(CNC(=O)c3ccc(Cl)cc3)cc2)cc1 | 10 | > 60 | inhibition in vivo at 10 mg/kg (Mus musculus [4]): 50%
16 | O=C(NCc1ccc(CNS(=O)(=O)c2ccccc2)cc1)c1ccc(Cl)cc1 | 100 | < 50 | –
17 | O=C(NCc1ccc(CNS(=O)(=O)c2ccccc2)cc1)c1ccccc1F | 1000 | – | –

Row | Structure (SMILES) | EC [1] [nM] | inhibition [3] [%] | further results
18 | Cc1cccc(C(=O)NCc2ccc(CNS(=O)(=O)c3ccccc3)cc2)c1 | 1000 | – | –
19 | COc1ccccc1C(=O)NCc1ccc(CNS(=O)(=O)c2ccccc2)cc1 | 1 | > 90 | Ratio [2]: 1000; inhibition (Mus musculus [4]): inactive
20 | Cc1ccc(S(=O)(=O)NCc2ccc(CNC(=O)c3c(Cl)cc(Cl)cc3Cl)cc2)cc1 | 10 | 55 | –
21 | Cc1ccc(S(=O)(=O)NCc2ccc(CNC(=O)c3ccncc3)cc2)cc1 | 10 | 55 | –
22 | O=C(NCc1ccc(CNS(=O)(=O)c2ccccc2)cc1)c1c(Cl)cc(Cl)cc1Cl | 10 | > 60 | inhibition (Mus musculus [4]): inactive
23 | COc1ccc(C(=O)NCc2ccc(CNS(=O)(=O)c3ccccc3)cc2)cc1 | 1000 | – | –
24 | Cc1ccccc1C(=O)NCc1ccc(CNS(=O)(=O)c2ccccc2)cc1 | 1 | > 90 | Ratio [2]: 1000; inhibition (Mus musculus [4]): inactive
25 | Cc1ccc(S(=O)(=O)NCc2ccc(CNC(=O)c3cccnc3)cc2)cc1 | > 1000 | – | –
26 | Cc1ccc(S(=O)(=O)NCc2ccc(CNC(=O)c3ccccc3Cl)cc2)cc1 | 10 | > 90 | inhibition in vivo at 10 mg/kg (Mus musculus [4]): 26%
27 | O=C(NCc1ccc(CNS(=O)(=O)c2ccccc2)cc1)c1cccnc1 | 10 | > 60 | inhibition in vivo at 10 mg/kg (Mus musculus [4]): 53%
28 | O=C(NCc1ccc(CNS(=O)(=O)c2ccccc2)cc1)c1cccc(Cl)c1 | 1000 | – | –
29 | O=C(NCc1ccc(CNS(=O)(=O)c2ccccc2)cc1)c1ccc([N+](=O)[O-])cc1 | 100 | 55 | –
30 | COc1ccccc1C(=O)NCc1ccc(CNS(=O)(=O)c2ccc(C)cc2)cc1 | 100 | > 90 | inhibition (Mus musculus [4]): inactive
31 | COc1ccc(C(=O)NCc2ccc(CNS(=O)(=O)c3ccc(C)cc3)cc2)cc1 | 100 | 55 | –
32 | Cc1ccc(S(=O)(=O)NCc2ccc(CNC(=O)c3ccccc3C)cc2)cc1 | 100 | < 50 | –
33 | COc1cccc(C(=O)NCc2ccc(CNS(=O)(=O)c3ccccc3)cc2)c1 | > 1000 | – | –
34 | O=C(NCc1ccc(CNS(=O)(=O)c2ccccc2)cc1)c1ccncc1 | 10 | > 60 | inhibition in vivo at 10 mg/kg (Mus musculus [4]): 40%
